Test [1] is described as follows: Cytotoxicity against human U373 cells. Particulars: U373 MG, read-out: ED50 (the source's name). It counts as functional, U-373MG ATCC.
The next test deals with HT. Nature of the test: Cytotoxicity against human HT cells. The format is functional. Particulars: read-out: ED50 (the source's name).
The next test has as its system A-431. Nature of the test: Cytotoxicity against human A431 cells. The format is functional. To be noted: read-out: ED50 (the source's name).
Another test relates to Lu1. Nature of the test: Cytotoxicity against human Lu1 cells. It counts as functional. Particulars: read-out: ED50 (the source's name).
A short description of test [2]: Cytotoxicity against human BC1 cells. Particulars: read-out: ED50 (the source's name). It counts as functional.
For a further test, the system named is LNCaP. In words: Cytotoxicity against human LNCAP cells. The format is functional. Particulars: read-out: ED50 (the source's name).
Test [3] concerns Betapolyomavirus macacae. In words: Induction of DNA-strand scission activity in SV40 form 1 DNA at 25 ug/mL.
The subject of the next test is KB. In words: Cytotoxicity against human KB cells. To be noted: read-out: ED50 (the source's name). The format is functional.
The nature of test [4]: Cytotoxicity against human KBVIN cells in absence of vinblastine. It counts as functional. Particulars: read-out: ED50 (the source's name).
In a further test the test system is ZR-75-1. Nature of the test: Cytotoxicity against human ZR-75-1 cells. It counts as functional. To be noted: read-out: ED50 (the source's name).
Test [5] in a line: Cytotoxicity against human KBVIN cells in presence of vinblastine. The format is functional. Particulars: read-out: ED50 (the source's name).
The subject of another test is SK-MEL-2. In words: Cytotoxicity against human SK-MEL-2 cells. It counts as functional. To be noted: read-out: ED50 (the source's name).
A further test relates to Col2. Nature of the test: Cytotoxicity against human Col2 cells. It counts as functional. To be noted: read-out: ED50 (the source's name).
Test [6] concerns Betapolyomavirus macacae. In words: Induction of DNA-strand scission activity in SV40 form 1 DNA at 0.1 ug/mL.

In brackets after ≈: the same amount, converted by molar mass. Activity calls are given as the source filed them. No cut-off for these calls is given here.

As for `CC(C)=CCCC1(C)C=Cc2c(-c3oc4cc(O)cc(O)c4c(=O)c3O)ccc(O)c2O1` (configuration not stated) [PETALOPURPURENOL], the EC50 in test [1] came out at 13.3 µg/mL (≈ 30.5 µM); in the test with HT it was 7.3 µg/mL (≈ 16.7 µM); in the test on A-431 it was 11.9 µg/mL (≈ 27.3 µM); in the test on Lu1 it was 14.8 µg/mL (≈ 33.9 µM); in test [2], 9.9 µg/mL (≈ 22.7 µM); in the test with LNCaP, 14.8 µg/mL (≈ 33.9 µM). For the same molecule, the EC50 with KB is 18.9 µg/mL (≈ 43.3 µM); in test [4], 6.7 µg/mL (≈ 15.4 µM); in the test with ZR-75-1 it was 4.1 µg/mL (≈ 9.39 µM); in [5] it was 1 µg/mL; in the test with SK-MEL-2, 17.1 µg/mL (≈ 39.2 µM); in the test on Col2, > 20 µg/mL. The result with Betapolyomavirus macacae [3] was inactive.
Take `CC(C)=CCc1cc(O)c(O)c(CC=C(C)C)c1[C@H]1Oc2c(CC=C(C)C)c(O)cc(O)c2C(=O)[C@@H]1O` [PETALOSTEMUMOL]: the EC50 in test [1] was > 20 µg/mL; in the test on HT it was 10.3 µg/mL (≈ 20.3 µM); in the test on A-431, > 20 µg/mL; with Lu1, > 20 µg/mL; in test [2], > 20 µg/mL; with LNCaP, > 20 µg/mL. For the same molecule, the EC50 in the test on KB was > 20 µg/mL; in [4] it was > 20 µg/mL; in the test with ZR-75-1 it was 17.1 µg/mL (≈ 33.6 µM); in test [5], 1.2 µg/mL; with SK-MEL-2 it was > 20 µg/mL; in the test with Col2, > 20 µg/mL. Also, in the test on Betapolyomavirus macacae [3], the outcome was Active.
Consider BLEOMYCIN SULFATE, for which, in the test with Betapolyomavirus macacae [6], the outcome was Active.

The record behind these values is ChEMBL document CHEMBL1158197, “A new prenylated flavonol from the root of Petalostemon purpureus” (1996).
